Values of other authors as cited in US12357536B2, “Containers with selective dissolved gas content” (BAXTER INTERNATIONAL INC., priority 2021, dated 2025).
Read-outs that look alike come from different tables or passages of the source.

Details: cited from earlier work; for Solubility of oxygen: 760 mm Hg, salinity 0.0 ppt

O=O [oxygen]
Solubility of oxygen (3.0 °C): 13.445 ppm | Solubility of oxygen (3.2 °C): 13.374 ppm | Solubility of oxygen (3.4 °C): 13.303 ppm | Solubility of oxygen (3.6 °C): 13.233 ppm | Solubility of oxygen (3.8 °C): 13.163 ppm | Solubility of oxygen (4.0 °C): 13.094 ppm | Solubility of oxygen (4.2 °C): 13.025 ppm | Solubility of oxygen (4.4 °C): 12.957 ppm | Solubility of oxygen (4.6 °C): 12.890 ppm | Solubility of oxygen (4.8 °C): 12.823 ppm | Solubility of oxygen (5.0 °C): 12.757 ppm | Solubility of oxygen (5.2 °C): 12.692 ppm | Solubility of oxygen (5.4 °C): 12.627 ppm | Solubility of oxygen (5.6 °C): 12.563 ppm | Solubility of oxygen (5.8 °C): 12.499 ppm | Solubility of oxygen (6.0 °C): 12.436 ppm | Solubility of oxygen (6.2 °C): 12.373 ppm | Solubility of oxygen (6.4 °C): 12.311 ppm | Solubility of oxygen (6.6 °C): 12.249 ppm | Solubility of oxygen (6.8 °C): 12.188 ppm | Solubility of oxygen (7.0 °C): 12.127 ppm | Solubility of oxygen (7.2 °C): 12.067 ppm | Solubility of oxygen (7.4 °C): 12.008 ppm | Solubility of oxygen (7.6 °C): 11.949 ppm | Solubility of oxygen (7.8 °C): 11.980 ppm | Solubility of oxygen (8.0 °C): 11.832 ppm | Solubility of oxygen (8.2 °C): 11.774 ppm | Solubility of oxygen (8.4 °C): 11.717 ppm | Solubility of oxygen (8.6 °C): 11.661 ppm | Solubility of oxygen (8.8 °C): 11.604 ppm | Solubility of oxygen (9.0 °C): 11.549 ppm | Solubility of oxygen (9.2 °C): 11.493 ppm | Solubility of oxygen (9.4 °C): 11.439 ppm | Solubility of oxygen (9.6 °C): 11.384 ppm | Solubility of oxygen (9.8 °C): 11.331 ppm | Solubility of oxygen (10.0 °C): 11.277 ppm | Solubility of oxygen (10.2 °C): 11.224 ppm | Solubility of oxygen (10.4 °C): 11.172 ppm | Solubility of oxygen (10.6 °C): 11.119 ppm | Solubility of oxygen (10.8 °C): 11.068 ppm | Solubility of oxygen (11.0 °C): 11.016 ppm | Solubility of oxygen (11.2 °C): 10.995 ppm | Solubility of oxygen (11.4 °C): 10.915 ppm | Solubility of oxygen (11.6 °C): 10.865 ppm | Solubility of oxygen (11.8 °C): 10.815 ppm | Solubility of oxygen (12.0 °C): 10 766 ppm | Solubility of oxygen (12.2 °C): 10.717 ppm | Solubility of oxygen (12.4 °C): 10.669 ppm | Solubility of oxygen (12.6 °C): 10.620 ppm | Solubility of oxygen (12.8 °C): 10.573 ppm | Solubility of oxygen (13.0 °C): 10.525 ppm | Solubility of oxygen (13.2 °C): 10.478 ppm | Solubility of oxygen (13.4 °C): 10.432 ppm | Solubility of oxygen (13.6 °C): 10.386 ppm | Solubility of oxygen (13.8 °C): 10.340 ppm | Solubility of oxygen (14.0 °C): 10.294 ppm | Solubility of oxygen (14.2 °C): 10.249 ppm | Solubility of oxygen (14.4 °C): 10.204 ppm | Solubility of oxygen (14.6 °C): 10.160 ppm | Solubility of oxygen (14.8 °C): 10.115 ppm | Solubility of oxygen (15.0 °C): 10.072 ppm | Solubility of oxygen (15.2 °C): 10.028 ppm | Solubility of oxygen (15.4 °C): 9.985 ppm | Solubility of oxygen (15.6 °C): 9.942 ppm | Solubility of oxygen (15.8 °C): 9.900 ppm | Solubility of oxygen (16.0 °C): 9.858 ppm | Solubility of oxygen (16.2 °C): 9.816 ppm | Solubility of oxygen (16.4 °C): 9.774 ppm | Solubility of oxygen (16.6 °C): 9.733 ppm | Solubility of oxygen (16.8 °C): 9.692 ppm | Solubility of oxygen (17.0 °C): 9.651 ppm | Solubility of oxygen (17.2 °C): 9.611 ppm | Solubility of oxygen (17.4 °C): 9.571 ppm | Solubility of oxygen (17.6 °C): 9.531 ppm | Solubility of oxygen (17.8 °C): 9.492 ppm | Solubility of oxygen (18.0 °C): 9.453 ppm | Solubility of oxygen (18.2 °C): 9.414 ppm | Solubility of oxygen (18.4 °C): 9.375 ppm | Solubility of oxygen (18.6 °C): 9.337 ppm | Solubility of oxygen (18.8 °C): 9.299 ppm | Solubility of oxygen (19.0 °C): 9.261 ppm | Solubility of oxygen (19.2 °C): 9.224 ppm | Solubility of oxygen (19.4 °C): 9.187 ppm | Solubility of oxygen (19.6 °C): 9.150 ppm | Solubility of oxygen (19.8 °C): 9.113 ppm | Solubility of oxygen (20.0 °C): 9.077 ppm | Solubility of oxygen (20.2 °C): 9.040 ppm | Solubility of oxygen (20.4 °C): 9.004 ppm | Solubility of oxygen (20.6 °C): 8.969 ppm | Solubility of oxygen (20.8 °C): 8.933 ppm | Solubility of oxygen (21.0 °C): 8.989 ppm | Solubility of oxygen (21.2 °C): 8.863 ppm | Solubility of oxygen (21.4 °C): 8.829 ppm | Solubility of oxygen (21.6 °C): 8.794 ppm | Solubility of oxygen (21.8 °C): 8.760 ppm | Solubility of oxygen (22.0 °C): 8.726 ppm | Solubility of oxygen (22.2 °C): 8.693 ppm | Solubility of oxygen (22.4 °C): 8.659 ppm | Solubility of oxygen (22.6 °C): 8.626 ppm | Solubility of oxygen (22.8 °C): 8.583 ppm | DO concentration of a solution saturated with oxygen (about room temperature (approx.) 21° C): about 8 ppm
